{
  "source": "patent US9278086B2",
  "about": "“Combination therapy and uses thereof for treatment and prevention of parasitic infection and disease” (The Royal Institution for the Advancement of …, priority 2010, dated 2016)",
  "key": {"Plasmodium chabaudi [1]": {"test_system": "Plasmodium chabaudi", "test": "4-day test, P. chabaudi (10^7 pRBC i.v.) in pantetheinase-deficient A/J mice, blood parasitemia days 4 and 5", "format": "in vivo", "details": "A/J mice", "experimental": "(§1) A/J and C57BL/6 (B6) mice were purchased from the Jackson Laboratories (Bar Harbor, Me.) and were housed at McGill University according to the guidelines of the Canadian Council on Animal Care. An LDH virus-free isolate of P. chabaudi AS was maintained by weekly passage in A/J mice. Mice were infected intravenously into the tail vein (i.v.) with 10^6 or 10^7 pRBC suspended in pyrogen-free saline. Following infection, the percentage of pRBC was determined daily on thin blood smears stained with Dif-Quik™ (Dade Behring, Newark, Del.), as described (Fortin A, et al. (2001) Proc Natl Acad Sci USA 98: 10793-10798).\n(§2) Cysteamine hydrochloride (Sigma, Burlington ON) was prepared in PBS. Chloroquine hydrochloride, artesunate and dihydroartemisinin were provided by Dafra Pharmaceuticals; chloroquine was prepared in PBS, artesunate and DHA were prepared in 5% sodium bicarbonate and diluted in water to appropriate concentrations. All solutions were prepared fresh daily, filter sterilized and injections were performed intra-peritoneally (i.p) or subcutaneously (s.c.) for 4 days or according to treatment regimen. Mice were weighed prior to treatment to determine appropriate doses and injection volumes ranged from 100-400 μL per mouse. In the case of animals treated with two drugs, artemisinin derivatives were administered first (due to the short half life of cysteamine), followed by cysteamine 5-10 minutes later on alternate sides. Untreated control animals were injected with PBS alone.\n(§3) Groups with normally distributed data points were compared using parametric unpaired t-tests, while groups with non-Gaussian distributions were compared using non-parametric Mann-Whitney tests. Survival differences were analyzed using the Log-Rank test. […] Standard error of percent inhibition was calculated from individual mice compared to the mean parasitemia level of the control group.\n(§4) The effect of Cys on the potency and efficacy of the anti-malarial artemisinin derivatives was tested. […] Synergy (Tallarida R J (2001) J Pharmacol Exp Ther 298: 865-872) is defined as a total anti-malarial activity (reduction in blood parasitemia compared to untreated controls in a standard 4-day test) of the two compounds administered together being greater than the sum of the independent activities of the two compounds given alone. We tested combinations of Cys and either artesunate (ART) or dihydroartemisinin (DHA), the bioactive form of artemisinin. Pantetheinase-deficient mice were infected with P. chabaudi (10^7 pRBC, i.v.) and treated with Cys (170 mg/kg) and/or sub-optimal doses of ART (0.2 or 0.5 mg/kg) (FIG. 3A) or DHA (0.15 or 0.3 mg/kg) (FIG. 3B) from day 0-3 and parasitemia was monitored on days 4 and 5. […] Potentiation of the anti-malarial activity of ART (0.5 mg/kg) by Cys was also clearly evident in these C57BL/6 mice at both days 4 and 5 post-infection, with combined treatment causing a 65-71% reduction in parasitemia compared to PBS controls, greater than either compound tested alone (13-29%) (TABLE 1).\nIt was subsequently examined whether Cys potentiation of ART was dose dependent. Initially, Cys doses of 60, 100, 140 and 180 mg/kg were tested with a sub-optimal ART dose of 0.2 mg/kg. The drugs were administered from day 0-3 post infection, parasitemia was counted at day 4 and day 5 and the percent inhibition was calculated compared to PBS-treated controls (FIG. 4A). At 0.2 mg/kg, ART alone inhibits parasitemia by ˜20% (day 4) and 40% (day 5) while inhibition by Cys alone was partially dose dependent (varying between 10% and 25%). […] It was also assessed whether Cys could potentiate low doses of artesunate which, given alone, have no significant effect on parasitemia. In this experiment, Cys (170 mg/kg) was administered in combination, or not, with increasing doses of ART (0.05, 0.1, 0.2, 0.4 mg/kg) in the same 4-day experimental protocol."}, "Plasmodium chabaudi [2]": {"test_system": "Plasmodium chabaudi", "test": "4-day test, P. chabaudi (10^7 pRBC i.v.) in pantetheinase-sufficient C57BL/6 mice, blood parasitemia days 4 and 5", "format": "in vivo", "details": "cysteamine 170 mg/kg i.p. alone, days 0-3", "experimental": "as §1, §2, §3, §4"}, "[3]": {"details": "cysteamine 170 mg/kg i.p. alone, days 0-3"}},
  "data": [
    {"smiles": "NCCS", "note": "[Cysteamine]", "values": [
      {"measurement": "Inhibition of parasitemia Day 4", "setting": "Plasmodium chabaudi [1]; [3]", "value": 28, "unit": "% PBS control"},
      {"measurement": "Inhibition of parasitemia Day 5", "setting": "Plasmodium chabaudi [1]; [3]", "value": 23, "unit": "% PBS control"},
      {"measurement": "Cys doses as low as which show potentiation of the ART effect", "setting": "Plasmodium chabaudi [1]; lower Cys dose range (20, 40 and 60 mg/kg) with ART (FIG. 4B)", "value": "20 to 40", "unit": "mg/kg"},
      {"measurement": "Inhibition of parasitemia Day 4", "setting": "Plasmodium chabaudi [2]", "value": 13, "unit": "% PBS control"},
      {"measurement": "Inhibition of parasitemia Day 5", "setting": "Plasmodium chabaudi [2]", "value": 25, "unit": "% PBS control"}
    ]}
  ]
}
